Holding throughout (type): cell-based, Pseudomonas aeruginosa
Experiment [1] relates to P. aeruginosa ATCC 27853 and ATCC 25668 strains. Nature of the experiment: microbe, parasite or virus in culture. Particulars: ATCC 27853, 24 h. As for the experimental part:
The following strains were used: P. aeruginosa ATCC 27853, ATCC 25668, and PAO1-L (Lausanne subline). All strains were grown at 37 °C in Luria Bertani (LB) medium or in Luria Bertani Agar (LBA) plates.
The antibacterial activities of L- and D-Q53 CecB were evaluated by determining (i) the MIC and (ii) the MBC. Tobramycin (Merck) was used as an antibiotic control. (i) An overnight (ON) bacterial culture was diluted to 1 × 10^6 cells/mL in LB medium. 50 µL/well were seeded in sterile polypropylene 96-well plates (Corning, Corning, NY, USA) and added with 50 µL LB medium, containing serial dilutions of each compound (final concentrations of L- and D-Q53 CecB peptides from 1.1 to 35.2 µM; final concentrations of tobramycin from 0.26 to 17 μM; each condition in triplicate). Microbial suspensions in the growing medium (positive control) and wells with only the medium (negative controls) were processed in parallel. Plates were incubated 24 h at 37 °C with agitation (300 rpm), and the absorbance was measured at 600 nm in a microplate reader. The MIC was considered as the lowest concentration determining a delta optical density at 600 nm (ΔOD600) equal to 0 ± 0.05. The ΔOD600 was determined by subtracting the OD600 recorded at time 0 from that obtained after 24 h. Each experiment was performed at least three times. […] For each sample, 100 μL of 1:10, 1:100, and 1:1000 dilutions were plated on LBA plates, and colonies were counted after 24 h at 37 °C. […] Each experiment was performed at least twice.

Experiment [2] relates to P. aeruginosa ATCC 25668, mucoid strain. Particulars: for inhibitory effect on biofilm formation: 1/32 and 1/64 MIC, 24 h. As for the experimental part:
(§1) An ON bacterial culture was diluted to 2 × 10^6 cells/mL in an LB medium. 50 µL/well were seeded in a sterile non-treated polystyrene 96-well plate (Corning) and added with 50 µL LB medium containing serial dilutions of each compound (final concentrations of L- and D-Q53 CecB peptides: from 0.034 to 17.6 µM; final concentrations of tobramycin: 0.27 and 0.53 μM, and from 2.14 to 17 μM). Each condition was tested in three-six replicates. Wells containing untreated bacteria (negative controls) or LB medium only (blank) were followed in parallel. Each plate was incubated for 24 h at 37 °C without agitation. After washing twice, samples were stained with a 0.1% crystal violet solution for 20 min, washed three times, and incubated in 30% acetic acid for 20 min, as in [74]. Plates were read at 595 nm using a microplate reader. For each sample, the biofilm biomass percentage was calculated relative to that of the untreated control showing the highest OD value, set equal to 100%. Each experiment was performed at least twice.

In experiment [3] the test system is P. aeruginosa ATCC 27853, non-mucoid strain. Particulars: for inhibitory effect on biofilm formation: 1/32 and 1/64 MIC, 24 h; for decrement in biofilm biomass (inhibition of biofilm formation): ATCC 27853, 24 h. As for the experimental part:
as §1

Experiment [4] deals with P. aeruginosa ATCC 25668, mucoid strain. As to the kind of experiment: Degradation of pre-formed 24 h old biofilm, crystal violet. Particulars: for mean decrement in biomass of pre-formed biofilm: 1 h treatment of 24 h old biofilm. As for the experimental part:
(§2) One hundred μL of bacteria (1 × 10^6 cells/mL), derived from a fresh ON culture, were seeded in a sterile non-treated polystyrene 96-well plate (Corning) and incubated for 24 h at 37 °C without agitation. […] Evaluation of biofilm biomass was performed using a crystal violet assay as described above (Section 4.8). Experiments were performed two-four times.

Experiment [5] relates to P. aeruginosa ATCC 27853, non-mucoid strain. The description is as above. The settings on record: for mean decrement in biomass of pre-formed biofilm: 1 h treatment of 24 h old biofilm. As for the experimental part:
as §2

For the next experiment, the system named is P. aeruginosa ATCC 27853. Nature of the experiment: CFU assay of medium over treated 24 h old biofilm. The settings on record: for mean CFUs/mL decrement vs untreated control: 1 MIC, 1 h; for living bacterial cells in the medium, Mean ± SEM: 1 h treatment of 24 h-old biofilm with 1 MIC (2.2 μM), four experiments, control 3.06 ± 2.07 × 10^14.
Experiment [6] has as its system P. aeruginosa ATCC 25668 strain. As to the kind of experiment: Motility assay (swimming, swarming, twitching). The settings on record: 1/2 MIC L-Q53 CecB or 1/4 MIC D-Q53 CecB; for effect on swimming motility: 0.3% agar LB plates; for effect on swarming motility: 0.5% agar LB plates; for effect on twitching motility (bacterial growth area): 1% agar LB plates. As for the experimental part:
The motility assay was performed as in [36], with minor modifications. […] Inocula were performed with a sterile toothpick (i) within the medium to detect swimming, (ii) on the top of the medium to detect swarming, and (iii) on the bottom of the plate to detect twitching. Bacteria grown and plated in the absence of any peptide were processed as negative controls. Plates were incubated at 30 °C (for swimming and swarming) or 37 °C (for twitching) and monitored for 24–48 h. Plate images were taken with a digital camera. Post-acquisition analyses were performed with Fiji, an open-source image-processing package based on ImageJ (http://fiji.sc/wiki/index.php, downloaded on 4 April 2022). Swimming, swarming, and twitching data were obtained by calculating the area of the growing zone over the total area of each plate. Values were expressed as percentages. Each type of motility was evaluated in at least four independent experiments, each with one replica per condition.

Experiment [7] has as its system P. aeruginosa biofilms (ATCC 25668). Nature of the experiment: Confocal microscopy of pre-formed biofilm, thickness. Particulars: 1 h treatment with 1 MIC (2.2 μM) of 24 h old biofilm; 6-8 confocal fields. As for the experimental part:
Bacteria cells (1 × 10^6 cells/mL) were grown in Permanox four-wells chamber slide systems (1.8 cm^2/well; Nunc® Lab-Tek® Chamber SlideTM system) at 37 °C for 24 h without agitation to allow biofilm formation. […] Negative controls, treated with LB only, were followed in parallel. […] After each staining, samples were washed twice with PBS. After washing, samples were fixed in 4% Paraformaldehyde, mounted in VECTASHIELD® mounting medium (Vector Laboratories, Newark, CA, USA), and observed using a Zeyss LSM 900 Airyscan 2 confocal microscope and a ×63 oil immersion objective. Optical sections (Z-series) were taken at 0.2 μm intervals. Experiments were performed four times (one-two replicates per condition). […] EPS was visualized using a 405 nm wavelength for excitation and 413-480 nm for emission (blue); to detect proteins or Propidium Iodide (red), a 543 nm wavelength for excitation and 590-610 nm for emission were used. Post-acquisition analyses were performed with Fiji (http://fiji.sc/wiki/index.php, downloaded on 4 April 2022). Cross-section views (x-z and y-z planes were obtained with the “Orthogonal View” plugin. To evaluate live and dead cells, images of single 0.13 μm slices taken in the upper part of the biofilm (i.e., in contact with the peptide during treatment) were processed using the “Counting Objects” plugin, and the same threshold level for red and green colors.

Consider two compounds from paper PMC10419416, “Fighting Pseudomonas aeruginosa Infections: Antibacterial and Antibiofilm Activity of D-Q53 CecB, a Synthetic Analog of a Silkworm Natural Cecropin B Variant” (International Journal of Molecular Sciences, 2023).

≈ marks a conversion by molar mass, not a printed value. Non-standard residues stand in square brackets, D forms with d. Residues, ends and D or L forms follow the SMILES beside them. No end group written: not given here.

Turning to `CC[C@@H](C)[C@@H](NC(=O)[C@@H](C)NC(=O)[C@@H](CCCCN)NC(=O)[C@@H](C)NC(=O)[C@@H](CO)NC(=O)CNC(=O)[C@@H](CC(C)C)NC(=O)[C@H](NC(=O)[C@@H](CCC(N)=O)NC(=O)[C@H](NC(=O)[C@@H](C)NC(=O)[C@H]1CCCN1C(=O)CNC(=O)[C@@H](C)NC(=O)[C@@H](CCCCN)NC(=O)[C@H](NC(=O)[C@H](NC(=O)CNC(=O)[C@@H](CC(=O)O)NC(=O)[C@@H](CCCNC(=N)N)NC(=O)[C@H](NC(=O)[C@@H](CC(N)=O)NC(=O)[C@@H](CCCNC(=N)N)NC(=O)CNC(=O)[C@@H](CCSC)NC(=O)[C@@H](CCCCN)NC(=O)[C@@H](CCC(=O)O)NC(=O)[C@H](NC(=O)[C@@H](CCCCN)NC(=O)[C@@H](CCCCN)NC(=O)[C@@H](Cc1ccccc1)NC(=O)[C@H](NC(=O)[C@@H](CCCCN)NC(=O)[C@@H](Cc1c[nH]c2ccccc12)NC(=O)[C@H](N)CCCNC(=N)N)[C@H](C)CC)[C@H](C)CC)[C@H](C)CC)[C@H](C)CC)C(C)C)[C@H](C)CC)C(C)C)C(N)=O` [D-Q53 CecB] (H-[dR][dW][dK][dI][dF][dK][dK][dI][dE][dK][dM]G[dR][dN][dI][dR][dD]G[dI][dV][dK][dA]G[dP][dA][dI][dQ][dV][dL]G[dS][dA][dK][dA][dI]-NH2; N-terminus and C-terminus assumed), the MBC in experiment [1] turned out to be 4.40 µM (≈ 17.1 µg/mL). Moreover, the “inhibitory effect on biofilm formation” value in experiment [2] and in experiment [3] was “did not show any significant inhibitory effect” in each case. Besides, the “decrement in biofilm biomass (inhibition of biofilm formation)” value in experiment [2] (ATCC 25668, 24 h) lay within 30 to 44%; in experiment [3] it was 30 to 60%. The “mean decrement in biofilm biomass (inhibition of biofilm formation)” value in experiment [2] (ATCC 25668, 24 h) came to 93%. In addition, the “mean decrement in biomass of pre-formed biofilm” value in experiment [4] (1/2 MIC (1.1 μM)) is on record as 38%; in experiment [4] (8 MIC (17.6 μM)) it was 52%; in experiment [5] (1/2 MIC (1.1 μM)), 49%; in experiment [5] (8 MIC (17.6 μM)) it was 64%. The “reduction of pre-formed biofilm” value in experiment [4] (1/4 MIC (0.55 μM), 1 h) is on record as “lost its ability to reduce pre-formed biofilms”; in experiment [5] (1/4 MIC (0.55 μM), 1 h), “lost its ability to reduce pre-formed biofilms”. The “mean CFUs/mL decrement vs untreated control” value in the experiment with P. aeruginosa ATCC 27853 was 4 orders of magnitude. The “living bacterial cells in the medium, Mean ± SEM” value in the experiment on P. aeruginosa ATCC 27853 was 1.07 ± 1.06 × 10^10 CFUs/mL. Besides, in experiment [6], the “effect on swimming motility” value was “not able to affect”. Also, the “effect on swarming motility” value in experiment [6] is “not able to affect”. The “effect on twitching motility (bacterial growth area)” value in experiment [6] is “significant reductions”. For the same compound, in experiment [7], the “reduction in biofilm thickness vs untreated controls” value is listed as ~ 77%.

With “RWKIFKKIEKMGRNIRDGIVKAGPAIQVLGSAKAI-NH2 [L-Q53 CecB]”, in experiment [1], the MBC came out at 11 µM. The “inhibitory effect on biofilm formation” value in experiment [2] is reported as “did not show any significant inhibitory effect”. Also, the “decrement in biofilm biomass (inhibition of biofilm formation)” value in experiment [2] (ATCC 25668, 24 h) was in the range of 30 to 44%. In experiment [3], the “inhibitory effect on biofilm formation” value is given as “did not show any significant inhibitory effect” and the “decrement in biofilm biomass (inhibition of biofilm formation)” value is recorded as 30 to 60%. Moreover, in experiment [4] (4 MIC, 1 h, single sample), the “reduction of pre-formed biofilm biomass” value is “significant biofilm biomass decrements”. The “reduction of pre-formed biofilm biomass at all tested concentrations” value in experiment [4] (1 h, L-Q53 CecB 1/2 to 8 MIC (except 4 MIC), tobramycin 1 to 8 MIC) was “did not significantly reduce biofilm biomass”. In addition, the “reduction of pre-formed biofilm biomass at all tested concentrations” value in experiment [5] (1 h, L-Q53 CecB 1/2 to 8 MIC, tobramycin 1 to 8 MIC) is recorded as “did not significantly reduce biofilm biomass”. In the experiment on P. aeruginosa ATCC 27853, the “mean CFUs/mL decrement vs untreated control” value is 6 orders of magnitude and the “living bacterial cells in the medium, Mean ± SEM” value is listed as 7.03 ± 4.10 × 10^8 CFUs/mL. In addition, in experiment [6], the “effect on swimming motility” value is “not able to affect”, the “effect on swarming motility” value is “not able to affect” and the “effect on twitching motility (bacterial growth area)” value is given as “no effect”. Also, the “reduction in biofilm thickness vs untreated controls” value in experiment [7] is “did not significantly reduce biofilm thickness”.
